Test results taken from patent publication US11479550B2, “EP4 antagonist” (ONO PHARMACEUTICAL CO., LTD., priority 2017, dated 2022).

Molecular target: human EP4 receptor (Homo sapiens (Human), UniProt P35408)
Experiment: EP4 antagonistic activity measurement experiment using prostanoid receptor subtype expressing cells
Format: cell-based
Settings: CHO cells expressing human EP4 receptor; inhibition of cAMP production by PGE2 10 nM; 30 minutes at room temperature
Protocol: CHO cells expressing human EP4 receptor subtypes were prepared according to the methods of Nishigaki et al. (Non-Patent Literature 4), and used for experiment. Cells cultured to subconfluent were detached, and suspended in an assay medium (MEM containing 1 mmol/L IBMX, 1% HSA) such that a concentration became 1×10^6 cells/mL. For reaction, PGE2 was added to the cell suspension (25 μL) in a final concentration of 10 nmol/L, either alone or as a 25-μL PGE2 solution containing the test compound. After 30 minutes of reaction at room temperature, the amount of cAMP in the cells was quantified according to the method in the descriptions of the cAMP assay kit (CISBIO).
Note here that the antagonistic effect (IC50 value) of the test compound was calculated as a value that represents an inhibition rate against a reaction with PGE2 alone at 10 nM, a concentration that produces a submaximal cAMP producing effect.

Chain of human EP4 receptor (P35408 whole entry): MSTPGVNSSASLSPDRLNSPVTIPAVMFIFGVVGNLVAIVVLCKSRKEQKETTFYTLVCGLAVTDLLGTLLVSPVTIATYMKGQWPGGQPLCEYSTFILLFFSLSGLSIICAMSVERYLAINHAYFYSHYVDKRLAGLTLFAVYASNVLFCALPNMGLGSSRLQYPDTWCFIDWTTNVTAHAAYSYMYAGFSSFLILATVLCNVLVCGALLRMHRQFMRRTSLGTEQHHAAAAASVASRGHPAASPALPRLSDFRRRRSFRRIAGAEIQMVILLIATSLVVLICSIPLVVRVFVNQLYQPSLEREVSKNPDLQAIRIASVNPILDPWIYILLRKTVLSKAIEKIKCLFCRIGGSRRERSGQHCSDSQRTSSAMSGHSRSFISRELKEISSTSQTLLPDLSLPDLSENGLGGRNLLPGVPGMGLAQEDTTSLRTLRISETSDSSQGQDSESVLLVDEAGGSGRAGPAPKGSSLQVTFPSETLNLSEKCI

In order of rising IC50:
1. COCCNC(=O)c1ccc2c(C3CC3)cn(C(C)C(=O)Nc3cc(C#N)ccc3CCCC(=O)O)c2c1 (single isomer, unassigned) [Example 11-25(2), 4-{4-cyano-2-[(2-{3-cyclopropyl-6-[(2-methoxyethyl)carbamoyl]-1H-indol-1-yl}propanoyl)amino]phenyl}butanoic acid]  0.57 nM
2. CCNC(=O)c1ccc2c(C)cn(C(C)C(=O)Nc3cc(Cn4cc(C)cn4)ccc3CCCC(=O)O)c2c1 (single isomer, unassigned) [Example 3-3(2), 4-{2-({2-[6-(ethylcarbamoyl)-3-methyl-1H-indol-1-yl]propanoyl}amino)-4-[(4-methyl-1H-pyrazol-1-yl)methyl]phenyl}butanoic acid]  0.9 nM
3. CNC(=O)c1ccc2c(C)cn(C(C)C(=O)Nc3cc(Cn4cc(C)c(C)n4)ccc3CCCC(=O)O)c2c1 (single isomer, unassigned) [Example 2-6(2), 4-{4-[(3,4-dimethyl-1H-pyrazol-1-yl)methyl]-2-({2-[3-methyl-6-(methylcarbamoyl)-1H-indol-1-yl]propanoyl}amino)phenyl}butanoic acid]  1.2 nM
4. Cc1cnn(Cc2ccc(CCCC(=O)O)c(NC(=O)C(C)n3cc(C)c4ccc(C(=O)NCC5CC5)cc43)c2)c1 (single isomer, unassigned) [Example 3-20(2), 4-{2-[(2-{6-[(cyclopropylmethyl)carbamoyl]-3-methyl-1H-indol-1-yl}propanoyl)amino]-4-[(4-methyl-1H-pyrazol-1-yl)methyl]phenyl}butanoic acid]  1.4 nM
5. CNC(=O)c1ccc2c(C)cn(C(C)C(=O)Nc3cc(Cn4cnc(C(F)(F)F)n4)ccc3CCCC(=O)O)c2c1 (single isomer, unassigned) [Example 7-3(2), 4-[2-({2-[3-methyl-6-(methylcarbamoyl)-1H-indol-1-yl]propanoyl}amino)-4-{[3-(trifluoromethyl)-1H-1,2,4-triazol-1-yl]methyl}phenyl]butanoic acid]  1.5 nM
6. Cc1cn(C(C)C(=O)Nc2cc(C#N)ccc2CCCC(=O)O)c2cc(C(=O)NC(C)(C)C)ccc12 (single isomer, unassigned) [Example 11-7(2), 4-{4-cyano-2-[(2-{3-methyl-6-[(2-methyl-2-propanyl)carbamoyl]-1H-indol-1-yl}propanoyl)amino]phenyl}butanoic acid]  1.6 nM
7. CNC(=O)c1ccc2c(C)cn(C(C)C(=O)Nc3cc(Cn4cc(C)cn4)ccc3CCCC(=O)O)c2c1 (single isomer, unassigned) [Example 12-1(2), 4-{2-({2-[3-methyl-6-(methylcarbamoyl)-1H-indol-1-yl]propanoyl}amino)-4-[(4-methyl-1H-pyrazol-1-yl)methyl]phenyl}butanoic acid]  1.6 nM
8. Cc1cnn(Cc2ccc(CCCC(=O)O)c(NC(=O)C(C)n3cc(C)c4ccc(C(=O)NC(C)C)cc43)c2)c1 (single isomer, unassigned) [Example 3-7(2), 4-{2-({2-[6-(isopropylcarbamoyl)-3-methyl-1H-indol-1-yl]propanoyl}amino)-4-[(4-methyl-1H-pyrazol-1-yl)methyl]phenyl}butanoic acid]  1.7 nM
9. CNC(=O)c1ccc2c(C)cn(C(C)C(=O)Nc3cc(Cn4nc(C)cc4C(F)(F)F)ccc3CCCC(=O)O)c2c1 (single isomer, unassigned) [Example 2-27(4), 4-[2-({2-[3-methyl-6-(methylcarbamoyl)-1H-indol-1-yl]propanoyl}amino)-4-{[3-methyl-5-(trifluoromethyl)-1H-pyrazol-1-yl]methyl}phenyl]butanoic acid]  1.8 nM
10. Cc1cn(C(C)C(=O)Nc2cc(C#N)ccc2CCCC(=O)O)c2cc(C(=O)NC3CCCC3)ccc12 (single isomer, unassigned) [Example 11-11(2), 4-[4-cyano-2-({2-[6-(cyclopentylcarbamoyl)-3-methyl-1H-indol-1-yl]propanoyl}amino)phenyl]butanoic acid]  2 nM
11. CCCNC(=O)c1ccc2c(C)cn(C(C)C(=O)Nc3cc(Cn4cc(C)cn4)ccc3CCCC(=O)O)c2c1 (single isomer, unassigned) [Example 3-5(2), 4-{2-({2-[3-methyl-6-(propylcarbamoyl)-1H-indol-1-yl]propanoyl}amino)-4-[(4-methyl-1H-pyrazol-1-yl)methyl]phenyl}butanoic acid]  2.1 nM
12. COCCNC(=O)c1ccc2c(C3CC3)cn(C(C)C(=O)Nc3cc(Cn4cc(C)cn4)ccc3CCCC(=O)O)c2c1 (single isomer, unassigned) [Example 9-5(2), 4-{2-[(2-{3-cyclopropyl-6-[(2-methoxyethyl)carbamoyl]-1H-indol-1-yl}propanoyl)amino]-4-[(4-methyl-1H-pyrazol-1-yl)methyl]phenyl}butanoic acid]  2.2 nM
13. CNC(=O)c1ccc2c(C)cn(C(C)C(=O)Nc3cc(Cn4cnc(C5CC5)n4)ccc3CCCC(=O)O)c2c1 (single isomer, unassigned) [Example 4-1(2), 4-{4-[(3-cyclopropyl-1H-1,2,4-triazol-1-yl)methyl]-2-({2-[3-methyl-6-(methylcarbamoyl)-1H-indol-1-yl]propanoyl}amino)phenyl}butanoic acid]  2.5 nM
14. CNC(=O)c1ccc2c(C)cn(C(C)C(=O)Nc3cc(Cn4cc(F)cn4)ccc3CCCC(=O)O)c2c1 (single isomer, unassigned) [Example 4-8(2), 4-{4-[(4-fluoro-1H-pyrazol-1-yl)methyl]-2-({2-[3-methyl-6-(methylcarbamoyl)-1H-indol-1-yl]propanoyl}amino)phenyl}butanoic acid]  2.7 nM
15. CNC(=O)c1ccc2c(C)cn(C(C)C(=O)Nc3cc(Cn4cc(C(C)C)nn4)ccc3CCCC(=O)O)c2c1 (single isomer, unassigned) [Example 6-5(1), 4-{4-[(4-isopropyl-1H-1,2,3-triazol-1-yl)methyl]-2-({2-[3-methyl-6-(methylcarbamoyl)-1H-indol-1-yl]propanoyl}amino)phenyl}butanoic acid]  2.7 nM
16. CNC(=O)c1ccc2c(C)cn(C(C)C(=O)Nc3cc(C#N)ccc3CCCC(=O)O)c2c1 (single isomer, unassigned) [Example 11-3(2), 4-[4-cyano-2-({2-[3-methyl-6-(methylcarbamoyl)-1H-indol-1-yl]propanoyl}amino)phenyl]butanoic acid]  2.7 nM
17. COCCNC(=O)c1ccc2c(C)cn(C(C)C(=O)Nc3cc(Cn4cnc(C(F)(F)F)n4)ccc3CCCC(=O)O)c2c1 (single isomer, unassigned) [Example 7-1(2), 4-(2-[(2-{6-[(2-methoxyethyl)carbamoyl]-3-methyl-1H-indol-1-yl}propanoyl)amino]-4-{[3-(trifluoromethyl)-1H-1,2,4-triazol-1-yl]methyl}phenyl)butanoic acid]  3.3 nM
18. Cc1cnn(Cc2ccc(CCCC(=O)O)c(NC(=O)C(C)n3cc(C)c4cc(C(=O)NC(C)C)ccc43)c2)c1 (single isomer, unassigned) [Example 8-9(2), 4-{2-({2-[5-(isopropylcarbamoyl)-3-methyl-1H-indol-1-yl]propanoyl}amino)-4-[(4-methyl-1H-pyrazol-1-yl)methyl]phenyl}butanoic acid]  3.3 nM
19. COCCNC(=O)c1ccc2ccn(C(C)C(=O)Nc3cc(C#N)ccc3CCCC(=O)O)c2c1 (single isomer, unassigned) [Example 10-1(2), 4-{4-cyano-2-[(2-{6-[(2-methoxyethyl)carbamoyl]-1H-indol-1-yl}propanoyl)amino]phenyl}butanoic acid]  3.7 nM
20. Cc1cnn(Cc2ccc(CCCC(=O)O)c(NC(=O)C(C)n3cc(C)c4ccc(C(=O)N(C)C)cc43)c2)c1 (single isomer, unassigned) [Example 3-11(2), 4-{2-({2-[6-(dimethylcarbamoyl)-3-methyl-1H-indol-1-yl]propanoyl}amino)-4-[(4-methyl-1H-pyrazol-1-yl)methyl]phenyl}butanoic acid]  4.6 nM
21. CNC(=O)c1ccc2c(C3CC3)cn(C(C)C(=O)Nc3cc(Cn4cc(C)cn4)ccc3CCCC(=O)O)c2c1 (single isomer, unassigned) [Example 9-1(2), 4-{2-({2-[3-cyclopropyl-6-(methylcarbamoyl)-1H-indol-1-yl]propanoyl}amino)-4-[(4-methyl-1H-pyrazol-1-yl)methyl]phenyl}butanoic acid]  4.6 nM
22. CNC(=O)c1ccc2c(C)cn(C(C)C(=O)Nc3cc(-c4nnc(C)o4)ccc3CCCC(=O)O)c2c1 (single isomer, unassigned) [Example 15-1(2), 4-[2-({2-[3-methyl-6-(methylcarbamoyl)-1H-indol-1-yl]propanoyl}amino)-4-(5-methyl-1,3,4-oxadiazol-2-yl)phenyl]butanoic acid]  6.4 nM
23. CNC(=O)c1ccc2c(C3CC3)cn(C(C)C(=O)Nc3cc(C#N)ccc3CCCC(=O)O)c2c1 (single isomer, unassigned) [Example 11-23(2), 4-[4-cyano-2-({2-[3-cyclopropyl-6-(methylcarbamoyl)-1H-indol-1-yl]propanoyl}amino)phenyl]butanoic acid]  6.5 nM
24. Cc1cnn(Cc2ccc(CCCC(=O)O)c(NC(=O)C(C)n3cc(C)c4cc(C(=O)N5CCCC5)ccc43)c2)c1 (single isomer, unassigned) [Example 8-17(2), 4-{4-[(4-methyl-1H-pyrazol-1-yl)methyl]-2-({2-[3-methyl-5-(1-pyrrolidinylcarbonyl)-1H-indol-1-yl]propanoyl}amino)phenyl}butanoic acid]  8.6 nM
25. COCCNC(=O)c1ccc2c(C)cn(C(C)C(=O)Nc3cc(F)ccc3CCCC(=O)O)c2c1 (single isomer, unassigned) [Example 11-30(2), 4-{4-fluoro-2-[(2-{6-[(2-methoxyethyl)carbamoyl]-3-methyl-1H-indol-1-yl}propanoyl)amino]phenyl}butanoic acid]  12 nM
